We go through 17 molecules from patent US12528802B2, “Heterocyclic compound” (Takeda Pharmaceutical Company Limited, priority 2019, dated 2026).

In experiment [1] the target is T1, glucosylceramide synthase (Homo sapiens, UniProt Q16739).
T1 construct: made in house; host or cells: Expi293F cells (transient expression, pcDNA3.3-TOPO vector); microsome fraction used as enzyme source
T1 sequence (Q16739 1-394): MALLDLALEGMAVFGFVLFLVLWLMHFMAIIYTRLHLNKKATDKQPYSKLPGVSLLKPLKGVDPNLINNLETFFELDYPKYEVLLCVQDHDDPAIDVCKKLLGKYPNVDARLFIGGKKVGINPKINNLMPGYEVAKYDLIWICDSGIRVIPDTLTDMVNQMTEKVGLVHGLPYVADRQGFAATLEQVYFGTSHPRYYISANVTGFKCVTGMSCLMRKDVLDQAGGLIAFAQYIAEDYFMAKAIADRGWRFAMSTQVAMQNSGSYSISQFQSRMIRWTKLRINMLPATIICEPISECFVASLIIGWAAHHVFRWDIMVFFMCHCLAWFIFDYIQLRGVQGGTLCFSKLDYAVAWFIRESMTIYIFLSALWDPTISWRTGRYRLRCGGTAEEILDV
Description: Glucosylceramide synthase (GCS) enzyme assay, microsome fraction, C8 glucosylceramide quantified by Rapidfire MS/MS. The format is biochemical. Conditions: test compound 10 μM; 1.7 μM UDP-glucose, 3 μM C8 ceramide; room temperature 60 min; read-out: GCS enzyme inhibitory rate at 10 μM (%) (% of control). The gist of the method:
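Test compound, 10 μM final, was run against human GCS from transfected Expi293F microsome fractions, using substrate solution of 6 μM C8 ceramide (in DOPC liposomes) plus 3.4 μM UDP-glucose, pH 7.5 Tris buffer, 60 min, room temperature. Product C8 glucosylceramide measured by Rapidfire MS/MS against an internal standard, % inhibition referenced to no-enzyme and DMSO wells.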

The subject of experiment [2] is Glucosylsphingosine (GlcSph). Kind of experiment: Pharmacodynamic test using Gaucher's disease model mouse (glucosylsphingosine lowering effect). The conditions noted are these: Gba D409V KI mice, two hours after last administration, ± standard deviation. The format is in vivo. The procedure: (§1) Pharmacodynamic Test Using Gaucher's Disease Model Mouse (Glucosylceramide and Glucosylsphingosine Lowering Effects)
(§2) Glucosylsphingosine (GlcSph) is known to be produced by deacylation of GlcCer and accumulated in tissues in patient with Gaucher's disease. Therefore, the GlcSph lowering effect of the compound of Example 119 due to the glucosylceramide synthase inhibitory effect was evaluated by measuring the GlcSph concentration in the tissue. For the experiment, Gba D409V KI mice, which were Gaucher's disease model mice in which GlcSph is accumulated, were purchased from Jackson Laboratory and used.
(§3) The test compound was prepared in a 0.5% methylcellulose suspension to a dose of 10 or 30 mg/kg, and orally administered. The administration was performed once a day for 2 months. Two hours after the last administration, the blood and cerebral cortex were collected, the plasma was prepared from the blood, and methanol is added to the cerebral cortex to prepare a homogenate. A mixed solution of isopropanol and ethanol was added to the obtained plasma and the methanol homogenate of the cerebral cortex, and the lipids were extracted. The GlcCer and GlcSph concentrations of the extracted samples were measured by LC/MS/MS.
(§4) The results of GlcCer were calculated from the following formula: (GlcCer concentration in the test compound administration group)/(GlcCer concentration in the 0.5% methylcellulose suspension administration group)×100. The results of GlcSph were calculated from the following formula: (GlcSph concentration in the test compound administration group)/(GlcSph concentration in the 0.5% methylcellulose suspension administration group)×100. The standard deviation values were also shown.

Experiment [3] relates to glucosylceramide (GlcCer). Description: Pharmacodynamic test using Gaucher's disease model mouse (glucosylceramide lowering effect). The format is in vivo. Conditions: Gba D409V KI mice, two hours after last administration, ± standard deviation. On the procedure:
as §1, §2, §3, §4

In experiment [4] the test system is glucosylceramide (GlcCer). Description: Pharmacodynamic test using mouse (glucosylceramide lowering effect). The format is in vivo. The conditions noted are these: C57BL/6J mice, 10 mg/kg oral, six hours after administration, ± standard deviation. On the procedure:
Pharmacodynamic Test Using Mouse (Glucosylceramide Lowering Effect)
For the experiment, C57BL/6J mice were purchased from CLEA Japan, Inc. and used. Glucosylceramide synthase is an enzyme that synthesizes glucosylceramide (GlcCer) from uridine diphosphate glucose and ceramide. Therefore, the glucosylceramide synthase inhibitory effect of the compound of Example 119 was evaluated by measuring the GlcCer concentration in the tissue.
The test compound was prepared in a 0.5% methylcellulose suspension to a dose of 10 mg/kg, and orally administered. Six hours after the administration, the blood and cerebral cortex were collected, the plasma was prepared from the blood, and methanol is added to the cerebral cortex to prepare a homogenate. A mixed solution of isopropanol and ethanol was added to the obtained plasma and the methanol homogenate of the cerebral cortex, and the lipids were extracted. The GlcCer concentrations of the extracted samples were measured by LC/MS/MS.
The results were calculated from the following formula: (GlcCer concentration in the test compound administration group)/(GlcCer concentration in the 0.5% methylcellulose suspension administration group)×100.
The standard deviation values were also shown.

Setting [5] is: 10 mg/kg oral once a day for 2 months, cerebral cortex.
Setting [6] is: 10 mg/kg oral once a day for 2 months, plasma.
The mark [7] stands for this setting: 30 mg/kg oral once a day for 2 months, cerebral cortex.
Where [8] appears, read: 30 mg/kg oral once a day for 2 months, plasma.

For `CC(C)(O)c1ccc(N2Cc3c(ccnc3-c3ccc(F)cc3OCC(F)(F)F)C2=O)cc1` [Example 119, 4-[4-fluoro-2-(2,2,2-trifluoroethoxy)phenyl]-2-[4-(2-hydroxypropan-2-yl)phenyl]-2,3-dihydro-1H-pyrrolo[3,4-c]pyridin-1-one], the inhibition at 10 µM in experiment [1] came out at 100%. In experiment [2] (setting [5]), the “GlcSph (% Control) cerebral cortex (10 mg/kg)” value worked out at 73 ± 27 % Control. Also, the “GlcSph (% Control) Plasma (10 mg/kg)” value in experiment [2] (setting [6]) turned out to be 58 ± 16 % Control. The “GlcSph (% Control) cerebral cortex (30 mg/kg)” value in experiment [2] (setting [7]) is on record as 61 ± 20 % Control. The “GlcSph (% Control) Plasma (30 mg/kg)” value in experiment [2] (setting [8]) came to 36 ± 9 % Control. The “GlcCer (% Control) cerebral cortex (10 mg/kg)” value in experiment [3] (setting [5]) was 58 ± 6 % Control. Further, the “GlcCer (% Control) Plasma (10 mg/kg)” value in experiment [3] (setting [6]) was determined as 40 ± 10 % Control. Also, the “GlcCer (% Control) cerebral cortex (30 mg/kg)” value in experiment [3] (setting [7]) came out at 40 ± 7 % Control. Also, in experiment [3] (setting [8]), the “GlcCer (% Control) Plasma (30 mg/kg)” value turned out to be 21 ± 4 % Control. Also, in experiment [4] (cerebral cortex), the “GlcCer (% Control) cerebral cortex” value is recorded as 52 ± 7 % Control. Besides, in experiment [4] (plasma), the “GlcCer (% Control) plasma” value was determined as 49 ± 14 % Control.
Take `Cc1cc2c(c(-c3ccccc3OCC(F)F)n1)CN(c1ccc(OCC(C)(C)O)cc1)C2=O` [Example 365, 4-[2-(2,2-difluoroethoxy)phenyl]-2-[4-(2-hydroxy-2-methylpropoxy)phenyl]-6-methyl-2,3-dihydro-1H-pyrrolo[3,4-c]pyridin-1-one]: in experiment [1], the inhibition at 10 µM came to 100%.
On the same count and under the same terms, in the case of `CC(C)(O)COc1ccc(N2Cc3c(ccnc3-c3ccccc3OCC(F)F)C2=O)cc1` [Example 366, 4-[2-(2,2-difluoroethoxy)phenyl]-2-[4-(2-hydroxy-2-methylpropoxy)phenyl]-2,3-dihydro-1H-pyrrolo [3,4-c]pyridin-1-one] it was 99%.
The same measure, in the same setting: in the case of `Cc1cc2c(c(-c3ccccc3OCC(F)(F)F)n1)CN(c1ccc(OCC(C)(C)O)nc1)C2=O` [Example 367, 2-[6-(2-hydroxy-2-methylpropoxy)pyridin-3-yl]-6-methyl-4-[2-(2,2,2-trifluoroethoxy)phenyl]-2,3-dihydro-1H-pyrrolo[3,4-c] pyridin-1-one] it was 99%.
The same measure, in the same setting: in the case of `CC(C)(O)c1ccc(N2Cc3c(cn(C(F)F)c(=O)c3-c3ccccc3OCC(F)(F)F)C2=O)cc1` [Example 368, 5-(difluoromethyl)-2-[4-(2-hydroxypropan-2-yl)phenyl]-7-[2-(2,2,2-trifluoroethoxy)phenyl]-1H-pyrrolo[3,4-c]pyridine-3,6(2H,5H)-dione] it was 100%; in that of `CC(C)(O)COc1ccc(N2Cc3c(cn(C(F)F)c(=O)c3-c3ccccc3OCC(F)(F)F)C2=O)cc1` [Example 369, 5-(difluoromethyl)-2-[4-(2-hydroxy-2-methylpropoxy)phenyl]-7-[2-(2,2,2-trifluoroethoxy)phenyl]-1H-pyrrolo[3,4-c]pyridine-3,6(2H,5H)-dione], 100%; in that of `CC(C)(O)c1ccc(N2Cc3c(cn(C4CC4)c(=O)c3-c3ccccc3OCC(F)(F)F)C2=O)cc1` [Example 371, 5-cyclopropyl-2-[4-(2-hydroxypropan-2-yl)phenyl]-7-[2-(2,2,2-trifluoroethoxy)phenyl]-1H-pyrrolo[3,4-c]pyridine-3,6(2H,5H)-dione], 100%.
With `CC(C)(O)COc1ccc(N2Cc3c(cn(C4CC4)c(=O)c3-c3ccccc3OCC(F)(F)F)C2=O)cc1` [Example 372, 5-cyclopropyl-2-[4-(2-hydroxy-2-methylpropoxy)phenyl]-7-[2-(2,2,2-trifluoroethoxy)phenyl]-1H-pyrrolo[3,4-c]pyridine-3,6(2H,5H)-dione], in experiment [1], the inhibition at 10 µM amounted to 100%.
Same read-out and setting: in the case of `Cc1cc2c(c(-c3ccccc3OCC(F)(F)F)n1)CN(c1ccc(OCC3(O)CC3)cc1)C2=O` [Example 375, 2-{4-[(1-hydroxycyclopropyl)methoxy]phenyl}-6-methyl-4-[2-(2,2,2-trifluoroethoxy)phenyl]-2,3-dihydro-1H-pyrrolo[3,4-c]pyridin-1-one] it was 100%; in that of `CC(C)n1cc2c(c(-c3ccccc3OCC(F)(F)F)c1=O)CN(c1ccc(C(C)(C)O)cc1)C2=O` [Example 376, 2-[4-(2-hydroxypropan-2-yl)phenyl]-5-(propan-2-yl)-7-[2-(2,2,2-trifluoroethoxy)phenyl]-1H-pyrrolo[3,4-c]pyridine-3,6(2H,5H)-dione], 100%.
Same read-out and setting: in the case of `CC(C)n1cc2c(c(-c3ccccc3OCC(F)(F)F)c1=O)CN(c1ccc(OCC(C)(C)O)cc1)C2=O` [Example 377, 2-[4-(2-hydroxy-2-methylpropoxy)phenyl]-5-(propan-2-yl)-7-[2-(2,2,2-trifluoroethoxy)phenyl]-1H-pyrrolo[3,4-c]pyridine-3,6(2H,5H)-dione] it was 100%; in that of `CC(C)(O)c1ccc(N2Cc3c(cc(C4CCOCC4)nc3-c3ccccc3OCC(F)(F)F)C2=O)cc1` [Example 379, 2-[4-(2-hydroxypropan-2-yl)phenyl]-6-(oxan-4-yl)-4-[2-(2,2,2-trifluoroethoxy)phenyl]-2,3-dihydro-1H-pyrrolo[3,4-c]pyridin-1-one], 101%.
As for `O=C1c2cc(C3CCCCC3)nc(-c3ccc(F)cc3OCC(F)(F)F)c2CN1c1ccc(F)cc1` [Example 381, 6-cyclohexyl-2-(4-fluorophenyl)-4-[4-fluoro-2-(2,2,2-trifluoroethoxy)phenyl]-2,3-dihydro-1H-pyrrolo [3,4-c]pyridin-1-one], the inhibition at 10 µM in experiment [1] amounted to 95%.
On the same count and under the same terms, in the case of `O=C1c2cc(C3CCOCC3)nc(-c3ccc(F)cc3OCC(F)(F)F)c2CN1c1ccc(F)cc1` [Example 382, 2-(4-fluorophenyl)-4-[4-fluoro-2-(2,2,2-trifluoroethoxy)phenyl]-6-(oxan-4-yl)-2,3-dihydro-1H-pyrrolo [3,4-c]pyridin-1-one] it was 97%; in that of `CC(C)(O)c1ccc(N2Cc3c(cc(C(C)(C)F)nc3-c3ccccc3OCC(F)(F)F)C2=O)cc1` [Example 384, 6-(2-fluoropropan-2-yl)-2-[4-(2-hydroxypropan-2-yl)phenyl]-4-[2-(2,2,2-trifluoroethoxy)phenyl]-2,3-dihydro-1H-pyrrolo[3,4-c]pyridin-1-one], 100%.
Still for that read-out and setting: in the case of `CC(C)(F)c1cc2c(c(-c3ccc(F)cc3OCC(F)(F)F)n1)CN(c1ccc(F)cc1)C2=O` [Example 385, 2-(4-fluorophenyl)-6-(2-fluoropropan-2-yl)-4-[4-fluoro-2-(2,2,2-trifluoroethoxy)phenyl]-2,3-dihydro-1H-pyrrolo[3,4-c]pyridin-1-one] it was 99%.
The same measure, in the same setting: in the case of `CC(C)(C)c1cc2c(c(-c3ccccc3OCC(F)(F)F)n1)CN(c1ccc(C(C)(C)O)cc1)C2=O` [Example 389, 6-tert-butyl-2-[4-(2-hydroxypropan-2-yl)phenyl]-4-[2-(2,2,2-trifluoroethoxy)phenyl]-2,3-dihydro-1H-pyrrolo[3,4-c]pyridin-1-one] it was 100%.
